According to publication PMC10353390, “Biological and Structural Analyses of New Potent Allosteric Inhibitors of HIV-1 Integrase” (Antimicrobial Agents and Chemotherapy, 2023):

Legend:
NL4-3 HIV-1 clone = experiment: Combination antiviral activity assay (MacSynergy II) in NL4-3-infected MT4 cells; assay type: cell-based
From the text: To this end, we evaluated the activity of BDM-2 in the presence of approved antiretroviral drugs against NL4-3 HIV-1 clone replicating on MT4 cells. Examples of MacSynergy plots obtained for the combinations of BDM-2 with the protease inhibitor lopinavir (LPV) or the INSTI EVG are shown in Fig. 3A and B, respectively. The results indicated no antagonism of ascending concentrations of BDM-2 with the antiviral activity of LPV or EVG and vice versa. Next, we extended these analyses to a panel of 16 FDA-approved antiretroviral drugs, including 3 protease inhibitors, 6 NRTIs, 4 NNRTIs, and 3 INSTIs.
BDM-2, as lead compound representative of the series, was used in these experiments. Combination studies were performed in MT4 cells infected with NL4-3, as previously described ([3]). Multiple concentrations of BDM-2 were tested in checkerboard pattern in the presence and absence of dilutions of 16 representative approved anti-HIV drugs of different classes. Compound combinations were analyzed by calculations to quantify deviation from additivity at the 50% level. Data were analyzed as described by Prichard and Shipman by using the MacSynergy II program ([54]). Synergy volumes in the range of −25 to +25 define additivity; −50 minor antagonism, +50 minor synergy, and up to 100 and >100 moderate and strong synergy, respectively. Combinations of RBV with AZT or ddI were used as controls for antagonism and synergy, respectively.

[1] = system: HIV-1 strains resistant to INSTIs, NRTIs, NNRTIs or PIs; assay type: cell-based
Summary of the method: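 NL4-3-based recombinant mutants and drug-resistant clinical isolates; exponentially growing MT4 cells (10^6/mL) infected at MOI 0.001 for 2 h with compound at varying concentrations. Protection quantified as cell viability by CellTiter-Glo luminescence.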

[2] = INSTI-resistant, NL4-3 background
[3] = INSTI-resistant, primary patient-derived strain

Cc1ccc(C2CC2)c(-c2ccc3c(c2)CCCO3)c1[C@H](OC(C)(C)C)C(=O)O [BDM-2]
interaction with a panel of 16 FDA-approved antiretroviral drugs (NL4-3 HIV-1 clone; 3 protease inhibitors, 6 NRTIs, 4 NNRTIs, 3 INSTIs, MacSynergy): no antagonism | interaction with lopinavir (LPV) (NL4-3 HIV-1 clone; MacSynergy synergy volume): strong synergy (up to 100 and >100 moderate and strong synergy, respectively) | interaction with some of the remaining drugs, including the INSTIs (NL4-3 HIV-1 clone; MacSynergy synergy volume): moderate synergy (up to 100 and >100 moderate and strong synergy, respectively) | Fold change in EC50 relative to NL4-3, E92Q [1, 2]: 1 | Fold change in EC50 relative to NL4-3, G140S [1, 2]: 1 | Fold change in EC50 relative to NL4-3, G140S/Q148H [1, 2]: 1 | Fold change in EC50 relative to NL4-3, N155H [1, 2]: 1 | Fold change in EC50 relative to NL4-3, Q148H [1, 2]: 1 | Fold change in EC50 relative to NL4-3, Y143R [1, 2]: 1 | Fold change in EC50 relative to NL4-3, E92Q/N155H (pat.) [1, 3]: 1 | Fold change in EC50 relative to NL4-3, G140S/Q148H (pat.) [1, 3]: 1 | Fold change in EC50 relative to NL4-3, T97A/N155H (pat.) [1, 3]: 1 | Fold change in EC50 relative to NL4-3, NLAY351717 ([1]; NRTI-resistant clone): 2 | Fold change in EC50 relative to NL4-3, NLAY351753 ([1]; NRTI/NNRTI-resistant clone): 1 | Fold change in EC50 relative to NL4-3, K103N/Y181C ([1]; NRTI/NNRTIs group, NL4-3 background): 1 | Fold change in EC50 relative to NL4-3, ARP-4595 ([1]; PI-resistant virus): 1 | Fold change in EC50 relative to NL4-3, ARP-4596 ([1]; PI-resistant virus): 0.5 | Fold change in EC50 relative to NL4-3, ARP-11801 ([1]; PI-resistant virus): 1 | Fold change in EC50 relative to NL4-3, ARP-11803 ([1]; PI-resistant virus): 1 | Fold change in EC50 relative to NL4-3, ARP-11807 ([1]; PI-resistant virus): 1 | Fold change in EC50 relative to NL4-3, ARP-11808 ([1]; PI-resistant virus): 1
